Experimental data reported in patent US20210267203A1, “PESTICIDALLY ACTIVE AZOLE-AMIDE COMPOUNDS” (SYNGENTA PARTICIPATIONS AG, priority 2018, published 2021).

Legend:
Format in all cases: in vivo
[1] = system: Spodoptera littoralis (Egyptian Cotton Leaf Worm); assay: Example B9: Spodoptera littoralis (Egyptian cotton leaf worm), cotton leaf discs sprayed, L1 larvae; settings: foliar, 72 h, application rate 200 ppm, 3 days after infestation
Summary of the method: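 Leaf discs on agar sprayed with aqueous dilutions from 10,000 ppm DMSO stock, dried, then infested with five L1 larvae. Mortality, anti-feeding and growth inhibition scored against untreated samples 3 days after infestation; control counted when any category exceeds untreated.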

[2] = system: Myzus persicae (Green Peach Aphid); assay: Example B8: Myzus persicae (green peach aphid), intrinsic activity; settings: 120 h, test rate 12 ppm, sucrose solution, 24-well, 5 days after infestation
Summary of the method: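 Compounds diluted from 10,000 ppm DMSO stock were mixed with sucrose solution under stretched Parafilm in a sachet feeding setup, with aphid-infested pea seedlings placed on the membrane. Mortality was scored 5 days after infestation.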

[3] = system: Diabrotica Balteata (Corn Root Worm); assay: Example B1: Diabrotica balteata (corn root worm), maize sprouts sprayed, L2 larvae; settings: 96 h, application rate 200 ppm, 4 days after infestation, read-out: effect in at least one of the two categories (mortality or growth inhibition)
Summary of the method: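 Maize sprouts on agar sprayed with aqueous dilutions of 10,000 ppm DMSO stocks, dried, then infested with 6–10 L2 larvae per well. Mortality and growth inhibition scored against untreated samples 4 days after infestation; rates of 200 ppm.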

[4] = system: Chilo suppressalis (Striped Rice Stemborer); assay: Example B4: Chilo suppressalis (striped rice stemborer), artificial diet, L2 larvae; settings: 144 h, application rate 200 ppm, 6 days after infestation
Summary of the method: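 L2 larvae (6-8 per well) placed on artificial diet treated with aqueous test solutions prepared from 10,000 ppm DMSO stocks, after drying. Mortality, anti-feeding and growth inhibition scored against untreated samples 6 days after infestation; control means at least one category exceeds untreated.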

[5] = system: Thrips tabaci (Onion Thrips); assay: Example B12: Thrips tabaci (onion thrips), feeding/contact activity; settings: 144 h, application rate 200 ppm, mixed ages, 6 days after infestation
Procedure: Example B12: Thrips tabaci (Onion Thrips) Feeding/Contact Activity
Sunflower leaf discs were placed on agar in 24-well microtiter plates and sprayed with aqueous test solutions prepared from 10,000 ppm DMSO stock solutions. After drying the leaf discs were infested with a thrips population of mixed ages. The samples were assessed for mortality 6 days after infestation.

[6] = system: Plutella xylostella (Diamondback Moth); assay: Example B14: activity against Plutella xylostella (diamondback moth), 96-well artificial diet; settings: 216 h, application rate 500 ppm, 9 days after infestation
Summary of the method: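 Diet in 96-well plates was treated with aqueous dilutions of 10,000 ppm DMSO stocks, dried, and infested with 30 eggs per well via a netted lid; hatching L1 larvae fed on the diet. Mortality scored 9 days after infestation.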

[7] = system: Euschistus heros (Neotropical Brown Stink Bug); assay: Example B2: Euschistus heros (neotropical brown stink bug), soybean leaves sprayed, N2 nymphs; settings: 120 h, application rate 200 ppm, 5 days after infestation, read-out: effect in at least one of the two categories (mortality or growth inhibition)
Summary of the method: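 Soybean leaves on agar sprayed with aqueous test solutions made from 10,000 ppm DMSO stocks, dried, then infested with N2 nymphs. Mortality and growth inhibition scored versus untreated samples 5 days after infestation; activity threshold at 200 ppm.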

[8] = system: Myzus persicae (Green Peach Aphid); assay: Example B13: activity against Myzus persicae (green peach aphid), 96-well sucrose solution; settings: 120 h, application rate 50 ppm, 5 days after infestation
Summary of the method: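 Compounds, from 10,000 ppm DMSO stocks, mixed into sucrose solution in wells under stretched Parafilm, with aphids placed on the membrane in an inverted feeding setup. Mortality scored 5 days after infestation.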

[9] = system: Spodoptera littoralis (Egyptian Cotton Leaf Worm); assay: Example B10: Spodoptera littoralis (Egyptian cotton leaf worm), uptake by lettuce roots from agar, eggs; settings: 144 h, test rate 12.5 ppm, lettuce root uptake, 6 days after infestation, read-out: effect in at least one of the three categories (mortality, anti-feeding, or growth inhibition)
Text: Example B10: Spodoptera littoralis (Egyptian Cotton Leaf Worm)
Test compounds were applied by pipette from 10,000 ppm DMSO stock solutions into 24-well plates and mixed with agar. Lettuce seeds were placed onto the agar and the multi well plate was closed by another plate which contained also agar. After 7 days the compound was absorbed by the roots and the lettuce grew into the lid plate. The lettuce leaves were then cut off into the lid plate. Spodoptera eggs were pipetted through a plastic stencil onto a humid gel blotting paper and the lid plate was closed with it. The samples were assessed for mortality, anti-feedant effect and growth inhibition in comparison to untreated samples 6 days after infestation.
The following compounds gave an effect of at least 80% in at least one of the three categories (mortality, anti-feeding, or growth inhibition) at a test rate of 12.5 ppm: […]

[10] = system: Plutella xylostella (Diamond Back Moth); assay: Example B5: Plutella xylostella (diamond back moth), artificial diet, 24-well, eggs; settings: 192 h, application rate 200 ppm, 8 days after infestation, read-out: effect in at least one of the two categories (mortality or growth inhibition)
Summary of the method: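 Artificial diet in 24-well plates treated with aqueous dilutions of 10,000 ppm DMSO stocks, dried, then infested with Plutella eggs. Mortality and growth inhibition scored against untreated samples 8 days after infestation; activity rated at 200 ppm application rate.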

[11] = system: Myzus persicae (Green Peach Aphid); assay: Example B6: Myzus persicae (green peach aphid), feeding/contact activity; settings: 144 h, application rate 200 ppm, 6 days after infestation
Procedure: Example B6: Myzus persicae (Green Peach Aphid):Feeding/Contact Activity
Sunflower leaf discs were placed onto agar in a 24-well microtiter plate and sprayed with aqueous test solutions prepared from 10,000 ppm DMSO stock solutions. After drying, the leaf discs were infested with an aphid population of mixed ages. The samples were assessed for mortality 6 days after infestation.

[12] = system: Myzus persicae (Green Peach Aphid); assay: Example B7: Myzus persicae (green peach aphid), systemic activity; settings: 144 h, test rate 24 ppm, pea seedling roots in test solution, 6 days
Procedure: Example B7: Myzus persicae (Green Peach Aphid), Systemic Activity
Roots of pea seedlings infested with an aphid population of mixed ages were placed directly into aqueous test solutions prepared from 10,000 DMSO stock solutions. The samples were assessed for mortality 6 days after placing seedlings into test solutions.

CC(c1ncnn1-c1ncccn1)N(CC1CC1)C(=O)c1cc(C2CC2C(F)(F)F)cc(C(F)(F)F)c1 (stereo not drawn) [P42, N-(cyclopropylmethyl)-N-[1-(2-pyrimidin-2-yl-1,2,4-triazol-3-yl)ethyl]-3-(trifluoromethyl)-5-[2-(trifluoromethyl)cyclopropyl]benzamide]
≥ 80%: percent control (mortality, anti-feedant effect or growth inhibition) at 200 ppm [1] | mortality at 12 ppm [2] | percent effect (mortality or growth inhibition) at 200 ppm [3] | percent control (mortality, anti-feedant effect or growth inhibition) at 200 ppm [4] | mortality at 200 ppm [5] | mortality at 500 ppm [6] | percent effect (mortality or growth inhibition) at 200 ppm [7] | mortality at 50 ppm [8] | percent effect (mortality, anti-feeding or growth inhibition) at 12.5 ppm [9] | percent effect (mortality or growth inhibition) at 200 ppm [10] | mortality at 200 ppm [11]

CC(NC(=O)c1cc(C2CC2C(F)(F)F)cc(C(F)(F)F)c1)c1ncnn1-c1ncccn1 (stereo not drawn) [P25, N-[1-(2-pyrimidin-2-yl-1,2,4-triazol-3-yl)ethyl]-3-(trifluoromethyl)-5-[2-(trifluoromethyl)cyclopropyl]benzamide]
≥ 80%: percent control (mortality, anti-feedant effect or growth inhibition) at 200 ppm [1] | mortality at 12 ppm [2] | percent effect (mortality or growth inhibition) at 200 ppm [3] | percent control (mortality, anti-feedant effect or growth inhibition) at 200 ppm [4] | mortality at 200 ppm [5] | mortality at 500 ppm [6] | percent effect (mortality or growth inhibition) at 200 ppm [7] | mortality at 50 ppm [8] | percent effect (mortality, anti-feeding or growth inhibition) at 12.5 ppm [9] | percent effect (mortality or growth inhibition) at 200 ppm [10]

CC(c1ncnn1-c1ncccn1)N(CC1CC1)C(=O)c1cc(C(F)(F)F)cc(C(F)(F)C2CC2)c1 (stereo not drawn) [P49, 3-[cyclopropyl(difluoro)methyl]-N-(cyclopropylmethyl)-N-[1-(2-pyrimidin-2-yl-1,2,4-triazol-3-yl)ethyl]-5-(trifluoromethyl)benzamide]
≥ 80%: percent control (mortality, anti-feedant effect or growth inhibition) at 200 ppm [1] | mortality at 12 ppm [2] | percent effect (mortality or growth inhibition) at 200 ppm [3] | percent control (mortality, anti-feedant effect or growth inhibition) at 200 ppm [4] | mortality at 200 ppm [5] | mortality at 500 ppm [6] | percent effect (mortality or growth inhibition) at 200 ppm [7] | mortality at 50 ppm [8] | percent effect (mortality, anti-feeding or growth inhibition) at 12.5 ppm [9] | percent effect (mortality or growth inhibition) at 200 ppm [10]

CC(NC(=O)c1cc(C(F)(F)F)cc(C(C)(C)C#N)c1)c1ncnn1-c1ncccn1 (stereo not drawn) [P84, 3-(1-cyano-1-methyl-ethyl)-N-[1-(2-pyrimidin-2-yl-1,2,4-triazol-3-yl)ethyl]-5-(trifluoromethyl)benzamide]
≥ 80%: percent control (mortality, anti-feedant effect or growth inhibition) at 200 ppm [1] | mortality at 12 ppm [2] | percent effect (mortality or growth inhibition) at 200 ppm [3] | percent control (mortality, anti-feedant effect or growth inhibition) at 200 ppm [4] | percent effect (mortality or growth inhibition) at 200 ppm [7] | percent effect (mortality or growth inhibition) at 200 ppm [10] | mortality at 24 ppm [12]

CC(c1ncnn1-c1ncccn1)N(CC1CC1)C(=O)c1cc(C2CC2(F)F)cc(C(F)(F)F)c1 (stereo not drawn) [P50, N-(cyclopropylmethyl)-3-(2,2-difluorocyclopropyl)-N-[1-(2-pyrimidin-2-yl-1,2,4-triazol-3-yl)ethyl]-5-(trifluoromethyl)benzamide]
≥ 80%: percent control (mortality, anti-feedant effect or growth inhibition) at 200 ppm [1] | mortality at 12 ppm [2] | percent effect (mortality or growth inhibition) at 200 ppm [3] | percent control (mortality, anti-feedant effect or growth inhibition) at 200 ppm [4] | mortality at 200 ppm [5] | mortality at 500 ppm [6] | mortality at 50 ppm [8] | percent effect (mortality, anti-feeding or growth inhibition) at 12.5 ppm [9] | percent effect (mortality or growth inhibition) at 200 ppm [10] | mortality at 200 ppm [11]

CC(c1ncnn1-c1ncccn1)N(CC1CC1)C(=O)c1cc(Cl)cc(C2(C#N)CC2)n1 (stereo not drawn) [P29, 4-chloro-6-(1-cyanocyclopropyl)-N-(cyclopropylmethyl)-N-[1-(2-pyrimidin-2-yl-1,2,4-triazol-3-yl)ethyl]pyridine-2-carboxamide]
≥ 80%: mortality at 12 ppm [2] | percent effect (mortality or growth inhibition) at 200 ppm [3] | mortality at 200 ppm [5] | mortality at 500 ppm [6] | percent effect (mortality or growth inhibition) at 200 ppm [7] | mortality at 50 ppm [8] | percent effect (mortality or growth inhibition) at 200 ppm [10]

CC(c1ncnn1-c1ncccn1)N(CC1CC1)C(=O)c1cc(C2CC2)cc(C(F)(F)F)c1 (stereo not drawn) [P52, 3-cyclopropyl-N-(cyclopropylmethyl)-N-[1-(2-pyrimidin-2-yl-1,2,4-triazol-3-yl)ethyl]-5-(trifluoromethyl)benzamide]
≥ 80%: percent control (mortality, anti-feedant effect or growth inhibition) at 200 ppm [1] | mortality at 12 ppm [2] | percent effect (mortality or growth inhibition) at 200 ppm [3] | mortality at 200 ppm [5] | mortality at 500 ppm [6] | percent effect (mortality or growth inhibition) at 200 ppm [7] | mortality at 50 ppm [8] | percent effect (mortality or growth inhibition) at 200 ppm [10]

CC(c1ncnn1-c1ncccn1)N(CC1CC1)C(=O)c1cc(C(F)(F)F)nc(C2(C#N)CC2)c1 (stereo not drawn) [P32, 2-(1-cyanocyclopropyl)-N-(cyclopropylmethyl)-N-[1-(2-pyrimidin-2-yl-1,2,4-triazol-3-yl)ethyl]-6-(trifluoromethyl)pyridine-4-carboxamide]
≥ 80%: percent control (mortality, anti-feedant effect or growth inhibition) at 200 ppm [1] | percent effect (mortality or growth inhibition) at 200 ppm [3] | percent control (mortality, anti-feedant effect or growth inhibition) at 200 ppm [4] | mortality at 200 ppm [5] | mortality at 500 ppm [6] | percent effect (mortality or growth inhibition) at 200 ppm [7] | mortality at 50 ppm [8] | percent effect (mortality, anti-feeding or growth inhibition) at 12.5 ppm [9] | percent effect (mortality or growth inhibition) at 200 ppm [10]
